The source made the active and inactive calls. Unless noted, no cut-off for these calls is given here.
test system: Candida albicans; assay: Antibiofilm activity against Candida albicans ATCC 28366 assessed as reduction of biofilm formation at 24 to 48 ug/mL after 24 hrs by crystal violet staining based assay; type: functional, organism-based; conditions: not given

SMILES | Activity
O=C1N[C@H](Cc2ccccc2)C(=O)N[C@H]1Cc1ccc(OCc2ccccc2)cc1 | Active
O=C1N[C@@H](Cc2ccc(OCc3ccccc3)cc2)C(=O)N[C@H]1Cc1ccc(OCc2ccccc2)cc1 | Active
O=C1N[C@H](Cc2ccc(OCc3ccccc3)cc2)C(=O)N[C@@H]1Cc1ccc(OCc2ccccc2)cc1 | Active

test system: Listeria monocytogenes; assay: Growth inhibition of Listeria monocytogenes WSLC 1001 incubated for 24 hrs under aerobic condition by microdilution method; type: organism-based; conditions: in vitro

SMILES | MIC [µg/mL]
O=C1N[C@H](Cc2ccccc2)C(=O)N[C@H]1Cc1ccc(OCc2ccccc2)cc1 | > 192
O=C1N[C@@H](Cc2ccc(OCc3ccccc3)cc2)C(=O)N[C@H]1Cc1ccc(OCc2ccccc2)cc1 | > 192
O=C1N[C@H](Cc2ccc(OCc3ccccc3)cc2)C(=O)N[C@@H]1Cc1ccc(OCc2ccccc2)cc1 | > 192

test system: Candida albicans; assay: Antibiofilm activity against Candida albicans ATCC 28366 assessed as reduction of biofilm formation after 24 hrs by crystal violet staining based assay; type: functional, organism-based; conditions: not given

SMILES | Activity
O=C1N[C@H](Cc2ccccc2)C(=O)N[C@H]1Cc1ccc(OCc2ccccc2)cc1 | Dose-dependent effect
O=C1N[C@@H](Cc2ccc(OCc3ccccc3)cc2)C(=O)N[C@H]1Cc1ccc(OCc2ccccc2)cc1 | Dose-dependent effect
O=C1N[C@H](Cc2ccc(OCc3ccccc3)cc2)C(=O)N[C@@H]1Cc1ccc(OCc2ccccc2)cc1 | Dose-dependent effect

test system: Porphyromonas gingivalis; assay: Antibiofilm activity against Porphyromonas gingivalis ATCC 33277 assessed as inhibition of biofilm formation up to 96 ug/mL after 24 hrs by crystal violet staining based assay; type: functional, organism-based; conditions: not given

SMILES | inhibition
O=C1N[C@H](Cc2ccccc2)C(=O)N[C@H]1Cc1ccc(OCc2ccccc2)cc1 | inactive
O=C1N[C@@H](Cc2ccc(OCc3ccccc3)cc2)C(=O)N[C@H]1Cc1ccc(OCc2ccccc2)cc1 | inactive
O=C1N[C@H](Cc2ccc(OCc3ccccc3)cc2)C(=O)N[C@@H]1Cc1ccc(OCc2ccccc2)cc1 | inactive

test system: Actinomyces naeslundii; assay: Antibiofilm activity against Actinomyces naeslundii ATCC 49340 assessed as reduction of biofilm formation at 48 ug/mL after 24 hrs by crystal violet staining based assay; type: functional, organism-based; conditions: not given

SMILES | inhibition
O=C1N[C@H](Cc2ccccc2)C(=O)N[C@H]1Cc1ccc(OCc2ccccc2)cc1 | Active
O=C1N[C@@H](Cc2ccc(OCc3ccccc3)cc2)C(=O)N[C@H]1Cc1ccc(OCc2ccccc2)cc1 | Active
O=C1N[C@H](Cc2ccc(OCc3ccccc3)cc2)C(=O)N[C@@H]1Cc1ccc(OCc2ccccc2)cc1 | Active

test system: Actinomyces naeslundii; assay: Antibiofilm activity against Actinomyces naeslundii ATCC 49340 assessed as reduction of biofilm formation by visual analysis; type: functional, organism-based; conditions: not given

SMILES | inhibition
O=C1N[C@H](Cc2ccccc2)C(=O)N[C@H]1Cc1ccc(OCc2ccccc2)cc1 | Active
O=C1N[C@@H](Cc2ccc(OCc3ccccc3)cc2)C(=O)N[C@H]1Cc1ccc(OCc2ccccc2)cc1 | Active
O=C1N[C@H](Cc2ccc(OCc3ccccc3)cc2)C(=O)N[C@@H]1Cc1ccc(OCc2ccccc2)cc1 | Active

test system: Streptococcus mutans; assay: Disruption of Streptococcus mutans ATCC 25175 pre-formed mature biofilm assessed as reduction in biofilm biomass at 96 ug/mL after 12 hrs by crystal violet staining based assay; type: functional, organism-based; conditions: not given

SMILES | Activity
O=C1N[C@H](Cc2ccccc2)C(=O)N[C@H]1Cc1ccc(OCc2ccccc2)cc1 | inactive
O=C1N[C@@H](Cc2ccc(OCc3ccccc3)cc2)C(=O)N[C@H]1Cc1ccc(OCc2ccccc2)cc1 | inactive
O=C1N[C@H](Cc2ccc(OCc3ccccc3)cc2)C(=O)N[C@@H]1Cc1ccc(OCc2ccccc2)cc1 | inactive

test system: Streptococcus mutans; assay: Antibiofilm activity against Streptococcus mutans ATCC 25175 assessed as inhibition of biofilm formation at 6 to 12 ug/mL after 24 hrs by crystal violet staining-based assay; type: functional, organism-based; conditions: not given

SMILES | Activity
O=C1N[C@H](Cc2ccccc2)C(=O)N[C@H]1Cc1ccc(OCc2ccccc2)cc1 | Active
O=C1N[C@@H](Cc2ccc(OCc3ccccc3)cc2)C(=O)N[C@H]1Cc1ccc(OCc2ccccc2)cc1 | Active
O=C1N[C@H](Cc2ccc(OCc3ccccc3)cc2)C(=O)N[C@@H]1Cc1ccc(OCc2ccccc2)cc1 | Active

test system: Candida albicans; assay: Antiadherence activity against FITC-labelled Candida albicans ATCC 28366 assessed as reduction in bacterial adhesion to hydroxylapatite up to 96 ug/mL after 1 hr by fluorescence assay relative to control; type: functional; conditions: not given

SMILES | Activity
O=C1N[C@H](Cc2ccccc2)C(=O)N[C@H]1Cc1ccc(OCc2ccccc2)cc1 | Active
O=C1N[C@@H](Cc2ccc(OCc3ccccc3)cc2)C(=O)N[C@H]1Cc1ccc(OCc2ccccc2)cc1 | Active
O=C1N[C@H](Cc2ccc(OCc3ccccc3)cc2)C(=O)N[C@@H]1Cc1ccc(OCc2ccccc2)cc1 | Active

test system: Pseudomonas aeruginosa; assay: Growth inhibition of Pseudomonas aeruginosa ATCC 10145 incubated for 24 hrs under aerobic condition by microdilution method; type: organism-based; conditions: not given

SMILES | MIC [µg/mL]
O=C1N[C@H](Cc2ccccc2)C(=O)N[C@H]1Cc1ccc(OCc2ccccc2)cc1 | > 192
O=C1N[C@@H](Cc2ccc(OCc3ccccc3)cc2)C(=O)N[C@H]1Cc1ccc(OCc2ccccc2)cc1 | > 192
O=C1N[C@H](Cc2ccc(OCc3ccccc3)cc2)C(=O)N[C@@H]1Cc1ccc(OCc2ccccc2)cc1 | > 192

test system: Actinomyces naeslundii; assay: Antibiofilm activity against Actinomyces naeslundii ATCC 49340 assessed as prevention of homogenous biofilm formation up to 96 ug/mL after 24 hrs by crystal violet staining based assay; type: functional, organism-based; conditions: not given

SMILES | Activity
O=C1N[C@H](Cc2ccccc2)C(=O)N[C@H]1Cc1ccc(OCc2ccccc2)cc1 | Active
O=C1N[C@@H](Cc2ccc(OCc3ccccc3)cc2)C(=O)N[C@H]1Cc1ccc(OCc2ccccc2)cc1 | Active
O=C1N[C@H](Cc2ccc(OCc3ccccc3)cc2)C(=O)N[C@@H]1Cc1ccc(OCc2ccccc2)cc1 | Active

test system: Streptococcus mutans; assay: Inhibition of planktonic growth of Streptococcus mutans ATCC 25175 up to 96 ug/mL after 24 hrs relative to control; type: organism-based; conditions: not given

SMILES | growth inhibition (GI)
O=C1N[C@H](Cc2ccccc2)C(=O)N[C@H]1Cc1ccc(OCc2ccccc2)cc1 | Non-Toxic
O=C1N[C@@H](Cc2ccc(OCc3ccccc3)cc2)C(=O)N[C@H]1Cc1ccc(OCc2ccccc2)cc1 | Non-Toxic
O=C1N[C@H](Cc2ccc(OCc3ccccc3)cc2)C(=O)N[C@@H]1Cc1ccc(OCc2ccccc2)cc1 | Non-Toxic

test system: Streptococcus mutans; assay: Antiadherence activity in FITC-labelled Streptococcus mutans ATCC 25175 assessed as reduction in bacterial adhesion to hydroxylapatite up to 96 ug/mL after 1 hr fluorescence assay; type: functional, organism-based; conditions: not given

SMILES | Activity
O=C1N[C@H](Cc2ccccc2)C(=O)N[C@H]1Cc1ccc(OCc2ccccc2)cc1 | Active
O=C1N[C@@H](Cc2ccc(OCc3ccccc3)cc2)C(=O)N[C@H]1Cc1ccc(OCc2ccccc2)cc1 | Active
O=C1N[C@H](Cc2ccc(OCc3ccccc3)cc2)C(=O)N[C@@H]1Cc1ccc(OCc2ccccc2)cc1 | Active

test system: Limosilactobacillus fermentum; assay: Antibiofilm activity against Lactobacillus fermentum LacB1 assessed as inhibition of biofilm formation up to 96 ug/mL after 24 hrs by crystal violet staining based assay; type: functional, organism-based; conditions: not given

SMILES | inhibition
O=C1N[C@H](Cc2ccccc2)C(=O)N[C@H]1Cc1ccc(OCc2ccccc2)cc1 | inactive
O=C1N[C@@H](Cc2ccc(OCc3ccccc3)cc2)C(=O)N[C@H]1Cc1ccc(OCc2ccccc2)cc1 | inactive
O=C1N[C@H](Cc2ccc(OCc3ccccc3)cc2)C(=O)N[C@@H]1Cc1ccc(OCc2ccccc2)cc1 | inactive

test system: Escherichia coli; assay: Growth inhibition of Escherichia coli ATCC 15939 incubated for 24 hrs under aerobic condition by microdilution method; type: organism-based; conditions: not given

SMILES | MIC [µg/mL]
O=C1N[C@H](Cc2ccccc2)C(=O)N[C@H]1Cc1ccc(OCc2ccccc2)cc1 | > 192
O=C1N[C@@H](Cc2ccc(OCc3ccccc3)cc2)C(=O)N[C@H]1Cc1ccc(OCc2ccccc2)cc1 | > 192
O=C1N[C@H](Cc2ccc(OCc3ccccc3)cc2)C(=O)N[C@@H]1Cc1ccc(OCc2ccccc2)cc1 | > 192

test system: Candida albicans; assay: Disruption of Candida albicans ATCC 28366 pre-formed mature biofilm assessed as reduction in biofilm biomass at 96 ug/mL after 12 hrs by crystal violet staining based assay; type: functional, organism-based; conditions: not given

SMILES | Activity
O=C1N[C@H](Cc2ccccc2)C(=O)N[C@H]1Cc1ccc(OCc2ccccc2)cc1 | inactive
O=C1N[C@@H](Cc2ccc(OCc3ccccc3)cc2)C(=O)N[C@H]1Cc1ccc(OCc2ccccc2)cc1 | inactive
O=C1N[C@H](Cc2ccc(OCc3ccccc3)cc2)C(=O)N[C@@H]1Cc1ccc(OCc2ccccc2)cc1 | inactive

test system: Candida albicans; assay: Growth inhibition of Candida albicans ATCC 28366 up to 96 ug/ml measured after 24 hrs by microdilution method; type: organism-based; conditions: in vitro

SMILES | growth inhibition (GI)
O=C1N[C@H](Cc2ccccc2)C(=O)N[C@H]1Cc1ccc(OCc2ccccc2)cc1 | Non-Toxic
O=C1N[C@@H](Cc2ccc(OCc3ccccc3)cc2)C(=O)N[C@H]1Cc1ccc(OCc2ccccc2)cc1 | Non-Toxic
O=C1N[C@H](Cc2ccc(OCc3ccccc3)cc2)C(=O)N[C@@H]1Cc1ccc(OCc2ccccc2)cc1 | Non-Toxic

test system: Streptococcus mutans; assay: Antibiofilm activity against Streptococcus mutans ATCC 25175 assessed as inhibition of biofilm formation up to 96 ug/mL after 24 hrs by crystal violet staining-based assay; type: functional, organism-based; conditions: not given

SMILES | inhibition
O=C1N[C@H](Cc2ccccc2)C(=O)N[C@H]1Cc1ccc(OCc2ccccc2)cc1 | Active
O=C1N[C@@H](Cc2ccc(OCc3ccccc3)cc2)C(=O)N[C@H]1Cc1ccc(OCc2ccccc2)cc1 | Active
O=C1N[C@H](Cc2ccc(OCc3ccccc3)cc2)C(=O)N[C@@H]1Cc1ccc(OCc2ccccc2)cc1 | Active

test system: Fusobacterium nucleatum; assay: Antibiofilm activity against Fusobacterium nucleatum ATCC 25586 assessed as inhibition of biofilm formation up to 96 ug/mL after 24 hrs by crystal violet staining based assay; type: functional, organism-based; conditions: not given

SMILES | inhibition
O=C1N[C@H](Cc2ccccc2)C(=O)N[C@H]1Cc1ccc(OCc2ccccc2)cc1 | inactive
O=C1N[C@@H](Cc2ccc(OCc3ccccc3)cc2)C(=O)N[C@H]1Cc1ccc(OCc2ccccc2)cc1 | inactive
O=C1N[C@H](Cc2ccc(OCc3ccccc3)cc2)C(=O)N[C@@H]1Cc1ccc(OCc2ccccc2)cc1 | inactive

test system: Staphylococcus aureus; assay: Growth inhibition of Staphylococcus aureus ATCC 6538 incubated for 24 hrs under aerobic condition by microdilution method; type: organism-based; conditions: in vitro

SMILES | MIC [µg/mL]
O=C1N[C@H](Cc2ccccc2)C(=O)N[C@H]1Cc1ccc(OCc2ccccc2)cc1 | > 192
O=C1N[C@@H](Cc2ccc(OCc3ccccc3)cc2)C(=O)N[C@H]1Cc1ccc(OCc2ccccc2)cc1 | > 192
O=C1N[C@H](Cc2ccc(OCc3ccccc3)cc2)C(=O)N[C@@H]1Cc1ccc(OCc2ccccc2)cc1 | > 192

test system: Actinomyces naeslundii; assay: Antibiofilm activity against Actinomyces naeslundii ATCC 49340 assessed as inhibition of bacterial adhesion up to 96 ug/mL after 24 hrs by crystal violet staining based assay; type: functional, organism-based; conditions: not given

SMILES | inhibition
O=C1N[C@H](Cc2ccccc2)C(=O)N[C@H]1Cc1ccc(OCc2ccccc2)cc1 | inactive
O=C1N[C@@H](Cc2ccc(OCc3ccccc3)cc2)C(=O)N[C@H]1Cc1ccc(OCc2ccccc2)cc1 | inactive
O=C1N[C@H](Cc2ccc(OCc3ccccc3)cc2)C(=O)N[C@@H]1Cc1ccc(OCc2ccccc2)cc1 | inactive

Reference: ChEMBL document CHEMBL4340502, “Anti-biofilm and anti-adherence properties of novel cyclic dipeptides against oral pathogens” (Bioorg Med Chem, 2019)
